Source: patent US20230002359A1, “PESTICIDALLY ACTIVE FUSED BICYCLIC HETEROAROMATIC COMPOUNDS” (priority 2019, published 2023)

Key:
Format in all cases: in vivo
[1] = test system: Diabrotica Balteata (Corn Root Worm); test: Example B1: Diabrotica balteata (corn root worm), maize sprouts sprayed, L2 larvae; conditions: 96 h, application rate of 200 ppm, 4 days after infestation, L2 larvae, read-out: control in at least one of the two categories (mortality or growth inhibition)
Outline: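 Read-out is mortality plus growth inhibition relative to untreated controls, assessed 4 days after infestation. Sprouts resting on agar are sprayed with aqueous solutions derived from 10′000 ppm DMSO stocks and left to dry before L2 larvae (6 to 10 per well) are added.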

[2] = test system: Chilo suppressalis (Striped Rice Stemborer); test: Example B3: Chilo suppressalis (striped rice stemborer), artificial diet, L2 larvae; conditions: 144 h, application rate of 200 ppm, 6 days after infestation, L2 larvae, read-out: control in at least one of the three categories (mortality, anti-feedant effect, or growth inhibition)
Outline: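 First, artificial diet was treated with aqueous solutions prepared from 10'000 ppm DMSO stocks; second, after drying, L2 larvae (6-8/well) were added; third, effects were assessed at 6 days against untreated controls, counting control when any of three categories was higher.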

[3] = test system: Plutella xylostella (Diamond Back Moth); test: Example B4: Plutella xylostella (diamond back moth), artificial diet, eggs, 24-well; conditions: 192 h, application rate of 200 ppm, 8 days after infestation, eggs, read-out: control in at least one of the two categories (mortality or growth inhibition)
Procedure: 24-well microtiter plates with artificial diet were treated with aqueous test solutions prepared from 10′000 ppm DMSO stock solutions by pipetting. After drying, Plutella eggs were pipetted through a plastic stencil onto a gel blotting paper and the plate was closed with it. The samples were assessed for mortality and growth inhibition in comparison to untreated samples 8 days after infestation.

[4] = test system: Spodoptera littoralis (Egyptian Cotton Leaf Worm); test: Example B7: Spodoptera littoralis (Egyptian cotton leaf worm), cotton leaf discs sprayed, L1 larvae; conditions: foliar, 72 h, application rate of 200 ppm, 3 days after infestation, L1 larvae, read-out: control in at least one of the three categories (mortality, anti-feedant effect, or growth inhibition)
Outline: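 Leaf discs on agar sprayed with aqueous dilutions of 10′000 ppm DMSO stocks, dried, then infested with five L1 larvae. Mortality, anti-feeding and growth inhibition scored versus untreated 3 days after infestation; control given when any category exceeds untreated.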

CC(Nc1ncnc2c(Br)cc(C(F)(F)F)cc12)c1nccnc1-n1nccn1 (stereo not shown) [P.34, 8-bromo-N-[1-[3-(triazol-2-yl)pyrazin-2-yl]ethyl]-6-(trifluoromethyl)quinazolin-4-amine]
≥ 80%: percent control (mortality or growth inhibition) at 200 ppm [1] | percent control (mortality, anti-feedant effect or growth inhibition) at 200 ppm [2] | percent control (mortality or growth inhibition) at 200 ppm [3] | percent control (mortality, anti-feedant effect or growth inhibition) at 200 ppm [4]

CC(c1ncnn1-c1ccc(Br)cn1)N(C)c1ncnc2c(C(F)(F)F)cc(C(F)(F)F)cc12 (stereo not shown) [P.241, N-[1-[2-(5-bromo-2-pyridyl)-1,2,4-triazol-3-yl]ethyl]-N-methyl-6,8-bis(trifluoromethyl)quina-zolin-4-amine]
≥ 80%: percent control (mortality or growth inhibition) at 200 ppm [1] | percent control (mortality, anti-feedant effect or growth inhibition) at 200 ppm [2] | percent control (mortality or growth inhibition) at 200 ppm [3] | percent control (mortality, anti-feedant effect or growth inhibition) at 200 ppm [4]

CC(Nc1ncnc2c(C(F)(F)F)cc(Cl)cc12)c1ncnn1-c1ccc(OC(F)F)cn1 (stereo not shown) [P.235, 6-chloro-N-[1-[2-[5-(difluoromethoxy)-2-pyridyl]-1,2,4-triazol-3-yl]ethyl]-8-(trifluoromethyl)quinazolin-4-amine]
≥ 80%: percent control (mortality or growth inhibition) at 200 ppm [1] | percent control (mortality, anti-feedant effect or growth inhibition) at 200 ppm [2] | percent control (mortality or growth inhibition) at 200 ppm [3] | percent control (mortality, anti-feedant effect or growth inhibition) at 200 ppm [4]

CC(Nc1ncnc2c(C(F)(F)F)cc(C(F)(F)F)cc12)c1nccnc1-c1ccc(C#N)cn1 (stereo not shown) [P.115, 6-[3-[1-[[6,8-bis(trifluoromethyl)quina-zolin-4-yl]amino]ethyl]pyrazin-2-yl]pyridine-3-carbonitrile]
≥ 80%: percent control (mortality or growth inhibition) at 200 ppm [1] | percent control (mortality, anti-feedant effect or growth inhibition) at 200 ppm [2] | percent control (mortality or growth inhibition) at 200 ppm [3] | percent control (mortality, anti-feedant effect or growth inhibition) at 200 ppm [4]

CC(c1ncnn1-c1ccc(C#N)cn1)N(C)c1c(C#N)cnc2c(C(F)(F)F)cc(C(F)(F)F)cc12 (stereo not shown) [P.224, 4-[1-[2-(5-cyano-2-pyridyl)-1,2,4-tirazol-3-yl]ethyl-methyl-amino]-6,8-bis(trifluoromethy)quino-line-3-carbonitrile]
≥ 80%: percent control (mortality or growth inhibition) at 200 ppm [1] | percent control (mortality, anti-feedant effect or growth inhibition) at 200 ppm [2] | percent control (mortality or growth inhibition) at 200 ppm [3] | percent control (mortality, anti-feedant effect or growth inhibition) at 200 ppm [4]

CC(c1nccnc1-c1ccc(OC(F)F)cn1)N(C)c1ncnc2c(Br)cc(C(F)(F)F)cc12 (stereo not shown) [P.114, 8-bromo-N-[1-[3-[5-(difluoromethoxy)-2-pyridyl]pyrazin-2-yl]ethyl]-N-methyl-6-(trifluoromethyl)quinazolin-4-amine]
≥ 80%: percent control (mortality or growth inhibition) at 200 ppm [1] | percent control (mortality, anti-feedant effect or growth inhibition) at 200 ppm [2] | percent control (mortality or growth inhibition) at 200 ppm [3] | percent control (mortality, anti-feedant effect or growth inhibition) at 200 ppm [4]

C[C@H](Nc1ncnc2c(Cl)cc(C(F)(F)F)cc12)c1ncnn1-c1ccc(C#N)cn1 [P.17, 6-[5-[(1S)-1-[[8-chloro-6-(trifluoromethyl)quinazolin-4-yl]amino]ethyl]-1,2,4-triazol-1-yl]pyridine-3-carbonitrile]
≥ 80%: percent control (mortality or growth inhibition) at 200 ppm [1] | percent control (mortality, anti-feedant effect or growth inhibition) at 200 ppm [2] | percent control (mortality or growth inhibition) at 200 ppm [3] | percent control (mortality, anti-feedant effect or growth inhibition) at 200 ppm [4]

CC(Nc1ncnc2c(Cl)cc(Br)cc12)c1nccnc1-c1ncccn1 (stereo not shown) [P.178, 6-bromo-8-chloro-N-[1-(3-pyrimidin-2-ylpyrazin-2-yl)ethyl]quinazolin-4-amine]
≥ 80%: percent control (mortality or growth inhibition) at 200 ppm [1] | percent control (mortality, anti-feedant effect or growth inhibition) at 200 ppm [2] | percent control (mortality or growth inhibition) at 200 ppm [3] | percent control (mortality, anti-feedant effect or growth inhibition) at 200 ppm [4]

CC(Nc1ncnc2c(OC(F)(F)F)cc(Br)cc12)c1nccnc1-n1nccn1 (stereo not shown) [P.14, 6-bromo-N-[1-[3-(triazol-2-yl)pyrazin-2-yl]ethyl]-8-(trifluoromethoxy)quina-zolin-4-amine]
≥ 80%: percent control (mortality or growth inhibition) at 200 ppm [1] | percent control (mortality, anti-feedant effect or growth inhibition) at 200 ppm [2] | percent control (mortality or growth inhibition) at 200 ppm [3] | percent control (mortality, anti-feedant effect or growth inhibition) at 200 ppm [4]

CC(Nc1ncnc2c(Cl)cc(C(F)(F)F)cc12)c1nccnc1-n1nccn1 (stereo not shown) [P.35, 8-chloro-N-[1-[3-(triazol-2-yl)pyrazin-2-yl]ethyl]-6-(trifluoromethyl)quinazolin-4-amine]
≥ 80%: percent control (mortality or growth inhibition) at 200 ppm [1] | percent control (mortality, anti-feedant effect or growth inhibition) at 200 ppm [2] | percent control (mortality or growth inhibition) at 200 ppm [3] | percent control (mortality, anti-feedant effect or growth inhibition) at 200 ppm [4]

CC(c1nccnc1-c1ccc(OC(F)F)cn1)N(C)c1ncnc2c(Cl)cc(C(F)(F)F)cc12 (stereo not shown) [P.112, 8-chloro-N-[1-[3-[5-(difluroomethoxy)-2-pyridyl]pyrazin-2-yl]ethyl]-N-methyl-6-(trifluoromethyl)quinazolin-4-amine]
≥ 80%: percent control (mortality or growth inhibition) at 200 ppm [1] | percent control (mortality, anti-feedant effect or growth inhibition) at 200 ppm [2] | percent control (mortality or growth inhibition) at 200 ppm [3] | percent control (mortality, anti-feedant effect or growth inhibition) at 200 ppm [4]

C[C@@H](c1ncnn1-c1ncccn1)N(C)c1ccnc2c(Br)cc(C(F)(F)F)cc12 [P.255, 8-bromo-N-methyl-N-[(1S)-1-(2-pyrimidn-2-yl-1,2,4-triazol-3-yl)ethyl]-6-(trifluoromethyl)quinolin-4-amine]
≥ 80%: percent control (mortality or growth inhibition) at 200 ppm [1] | percent control (mortality, anti-feedant effect or growth inhibition) at 200 ppm [2] | percent control (mortality or growth inhibition) at 200 ppm [3] | percent control (mortality, anti-feedant effect or growth inhibition) at 200 ppm [4]

CC(Nc1ncnc2c(Br)cc(C(F)(F)F)cc12)c1nccnc1-c1ncccn1 (stereo not shown) [P.96, 8-bromo-N-[1-(3-pyrimidin-2-ylpyrazin-2-yl)ethyl]-6-(trifluoromethyl)quinazolin-4-amine]
≥ 80%: percent control (mortality or growth inhibition) at 200 ppm [1] | percent control (mortality, anti-feedant effect or growth inhibition) at 200 ppm [2] | percent control (mortality or growth inhibition) at 200 ppm [3] | percent control (mortality, anti-feedant effect or growth inhibition) at 200 ppm [4]

CC(c1ncnn1-c1ccc(Br)cn1)N(C)c1ncnc2c(Cl)cc(C(F)(F)F)cc12 (stereo not shown) [P.240, N-[1-[2-(5-bromo-2-pyridyl)-1,2,4-triazol-3-yl]ethyl]-8-chloro-N-methyl-6-(trifluoromethyl)quinazolin-4-amine]
≥ 80%: percent control (mortality or growth inhibition) at 200 ppm [1] | percent control (mortality, anti-feedant effect or growth inhibition) at 200 ppm [2] | percent control (mortality or growth inhibition) at 200 ppm [3] | percent control (mortality, anti-feedant effect or growth inhibition) at 200 ppm [4]

CC(c1nccnc1-c1ccc(C#N)cn1)N(C)c1ncnc2c(Cl)cc(C(F)(F)F)cc12 (stereo not shown) [P.122]
≥ 80%: percent control (mortality or growth inhibition) at 200 ppm [1] | percent control (mortality, anti-feedant effect or growth inhibition) at 200 ppm [2] | percent control (mortality or growth inhibition) at 200 ppm [3] | percent control (mortality, anti-feedant effect or growth inhibition) at 200 ppm [4]

CC(c1nccnc1-n1nccn1)N(C)c1ncnc2c(C(F)(F)F)cc(C(F)(F)F)cc12 (stereo not shown) [P.103, N-methyl-N-[1-[3-(triazol-2-yl)pyrazin-2-yl]ethyl]-6,8-bis(trifluoromethyl)quina-zolin-4-amine]
≥ 80%: percent control (mortality or growth inhibition) at 200 ppm [1] | percent control (mortality, anti-feedant effect or growth inhibition) at 200 ppm [2] | percent control (mortality or growth inhibition) at 200 ppm [3] | percent control (mortality, anti-feedant effect or growth inhibition) at 200 ppm [4]
